According to US12378234B2, “Crystalline polymorphs of a 1-thiazol-2-yl-pyrazole-5-carboxylic acid derivative” (Bantam Pharmaceutical, LLC, priority 2019, dated 2025):
Converted amounts (≈) assume the structure as drawn.

What was measured:
Assay type in all cases: physicochemical
[1] = Solubility of crystalline polymorph in biologically relevant media (water, SGF, FaSSIF, FeSSIF), HPLC of supernatant, pH, XRPD of remaining solids; details: for solubility at 1 h / solubility at 4 h / solubility at 24 h: thermodynamic from solid, 37° C.; for pH: solubility test
Procedure: The solubility of crystalline polymorph Form 1 was tested in biologically relevant media: water, simulated gastric fluid (SGF), fasted state simulated intestinal fluid (FaSSIF) and fed state simulated intestinal fluid (FeSSIF). For example, the crystalline polymorph was suspended in the solvent with stirring at 400 rpm at 37° C. for 1 h, 4 h and 24 h followed by filtration. The supernatant concentration was measured by HPLC (Mobile phase A: 0.1% NH3 in H2O, Mobile phase B: acetonitrile; flow rate: 0.8 mL/min; injection volume: 5 μL). The remaining solids were tested by XRPD.
The solubility of crystalline polymorph Form 11 was tested in biologically relevant media: water, SGF, FaSSIF, and FeSSIF. For example, the crystalline polymorph was suspended in the solvent with stirring at 400 rpm at 37° C. for 1 h, 4 h and 24 h followed by filtration. The supernatant was measured by HPLC for concentration and the remaining solids were tested by XRPD.

[2] = Dynamic vapor sorption (DVS)
Procedure: TGA and DSC measurements indicated weight loss of 0.1% at 150° C. and an endothermic peak at 120.0° C.
Dynamic Vapor Sorption (DVS) was measured with a SMS DVS Intrinsic from Surface Measurement Systems (London, United Kingdom) using the following parameters: temperature: 25° C.; sample size: 10-20 mg; gas and flow rate: N2 and 200 mL/min; dm/dt: 0.002%/min; min. dm/dt stability duration: 10 min; max. equilibrium time: 180 min; relative humidity (RH) range: 0% RH-95% RH-0% RH; RH step size: 10%.

[3] = Physical and chemical stability under stressed conditions (HPLC, XRPD); details: 40° C./75% RH for 1 week
Procedure: Physical and chemical stability evaluation has been performed for crystalline polymorph Form 1 under stressed conditions. In the experiments, about 10 mg of the polymorph was placed into 4 ml glass vials that were stored under 40° C./75% RH for 1 week. HPLC was utilized to evaluate the degradation, and XPRD was used to evaluate the crystalline polymorph.

[4] = Slurry conversion (competitive) experiments for thermodynamic stability relationship; details: slurry of Form 1:Form 5 (1:1) in H2O:acetone (9:1) or H2O:ethanol (3:1), room temperature, 2 or 3 days
Procedure: To determine the thermodynamic stability relationship between Form 1 and Form 5, slurry conversion experiments were conducted. Specifically, Form 1 sample was added to 1.0 mL H2O:acetone (9:1 v:v) or 0.8 mL of H2O:ethanol (3:1 v:v) at room temperature. After equilibrium for 1 hr, the suspensions were filtered to obtain a saturated solution Form 1. To each saturated solution of Form 1:Form 5 (1:1) was added. After stirring at room temperature for 2 or 3 days, the solids were isolated for XRPD analysis.
To determine the thermodynamic stability relationship between Form 11 and Form 12, slurry conversion experiments were conducted. Specifically, Form 12 (2.5 mg) was added to 1.0 mL of 4% dichloromethane at room temperature. After equilibrium for 1 hour, the suspensions were filtered to obtain a saturated solution Form 12. To the saturated solution of Form 11:Form 12 (1:1) was added. After stirring at room temperature for 30 minutes, the solids were isolated for XRPD analysis. […] The pH of Form 11 solution (2.5 mg in 1 mL of 4% dichloromethane) and Form 12 solution (2.5 mg in 1 mL of 4% dichloromethane) was measured to be 8.25 and 7.98, respectively.

Cc1nn(-c2nc(C3=CCC(C(F)(F)F)CC3)c(SC(C)C)s2)c(C(=O)O)c1-c1cccc(F)c1 (stereo not drawn) [Form 1, 4-(3-fluorophenyl)-1-(5-(isopropylthio)-4-(4-(trifluoromethyl)cyclohex-1-en-1-yl)thiazol-2-yl)-3-methyl-1H-pyrazole-5-carboxylic acid]
Form change by XRPD of remaining solids ([1]; after solubility test in FaSSIF): one unknown peak was observed at about 31 2θ degrees
Form change by XRPD of remaining solids ([1]; after solubility test in FeSSIF): no form change was observed
Form change by XRPD of remaining solids ([1]; after solubility test in SGF): no form change was observed
Form change by XRPD of remaining solids ([1]; after solubility test in water): no form change was observed
solubility at 1 h ([1]; fasted state simulated intestinal fluid (FaSSIF), FaSSIF, 1 hr): 140 µg/mL (≈ 266 µM)
solubility at 4 h ([1]; fasted state simulated intestinal fluid (FaSSIF), FaSSIF, 4 hr): 220 µg/mL (≈ 419 µM)
solubility at 24 h ([1]; fasted state simulated intestinal fluid (FaSSIF), FaSSIF, 24 hr): 200 µg/mL (≈ 381 µM)
solubility at 1 h ([1]; fed state simulated intestinal fluid (FeSSIF), FeSSIF, 1 hr): 170 µg/mL (≈ 323 µM)
solubility at 4 h ([1]; fed state simulated intestinal fluid (FeSSIF), FeSSIF, 4 hr): 180 µg/mL (≈ 342 µM)
solubility at 24 h ([1]; fed state simulated intestinal fluid (FeSSIF), FeSSIF, 24 hr): 140 µg/mL (≈ 266 µM)
solubility at 1 h ([1]; simulated gastric fluid (SGF), simulated gastric fluid, SGF, 1 hr): 50 µg/mL (≈ 95.1 µM)
solubility at 4 h ([1]; simulated gastric fluid (SGF), simulated gastric fluid, SGF, 4 hr): 30 µg/mL (≈ 57.1 µM)
solubility at 24 h ([1]; simulated gastric fluid (SGF), simulated gastric fluid, SGF, 24 hr): 30 µg/mL (≈ 57.1 µM)
pH ([1]; FaSSIF, 1 hr): 6.55
pH ([1]; FaSSIF, 4 hr): 5.75
pH ([1]; FaSSIF, 24 hr): 5.12
pH ([1]; FeSSIF, 1 hr): 5.07
pH ([1]; FeSSIF, 4 hr): 5.06
pH ([1]; FeSSIF, 24 hr): 4.94
pH ([1]; H2O, 1 hr): 7.00
pH ([1]; H2O, 4 hr): 7.82
pH ([1]; H2O, 24 hr): 6.68
pH ([1]; SGF, 1 hr): 1.93
pH ([1]; SGF, 4 hr): 1.75
pH ([1]; SGF, 24 hr): 1.83
solubility at 1 h ([1]; water, H2O, 1 hr): 490 µg/mL (≈ 932 µM)
solubility at 4 h ([1]; water, H2O, 4 hr): 1300 µg/mL (≈ 2470 µM)
solubility at 24 h ([1]; water, H2O, 24 hr): 1700 µg/mL (≈ 3230 µM)
water uptake (DVS) ([2]; 25° C./80% relative humidity): 0.6%
form change before and after DVS ([2]; XRPD, FIG. 1E): no form change was observed
hygroscopicity ([2]; from DVS at 25° C./80% relative humidity): slightly hygroscopic
physical and chemical stability [3]: physically stable
thermodynamic stability relationship between Form 1 and Form 5 [4]: more thermodynamically stable than Form 5
